One block for each molecule: values may come before it.
Experiments:
[1] = pyrene fluorescence I3/I1 ratio in different environments; type: physicochemical; details: peaks at 383 nm (I3) and 373 nm (I1), excitation 335 nm, label = environment of the pyrene
Description: Zwitterionic polymer coatings were investigated by allowing pyrene to diffuse into the polymer and studying the degree to which it is taken up, and the effects on the ratio of the fluorescence band intensities to see if there is any significant indication of the type of environment present.
The solution was used to coat polymethylmethacrylate (PMMA) fluorescence cuvettes by simply pouring into the cuvette, draining, following by an oven curing at 70° C. overnight.
The fluorescence spectrum was recorded using an excitation wavelength of 335 nm and scanned from 350-440 nm on a PE LS 50B Luminescence Spectrophotometer. Subtraction of the spectrum of each coating in water was necessary to remove the interference of a small band at 380 nm present in all methacrylate systems.
Environment information could be obtained by comparing the ratio of the intensity of the peaks at 373 nm (I1) and 383 nm (I3) (I3/I1). Where I3/I1 was similar for polymer systems, the comparative amount of pyrene present could be estimated by the maximum intensity of I1; alternatively, the entire peak area may offer an alternative measure of the comparative amount of pyrene present in different coatings. It was important to mark the side of the cuvette to ensure the same orientations were achieved each time it was replaced in the spectrophotometer.
Pyrene solution added to the coated cuvettes was allowed to stand for 16 h, the cuvette emptied and washed thoroughly with ultrapure water, refilled with ultrapure water and the fluorescence spectrum recorded. The comparative maximum height of I1 was used to estimate the relative amounts of pyrene in the coatings. This was repeated for three cuvettes of each polymer and the average taken.

[2] = pyrene fluorescence; cited from earlier work
[3] = Release of 17β-estradiol from stents, stirred 1000 ml PBS at 37° C.; type: physicochemical; details: five stents vigorously stirred in 1000 ml PBS at 37° C., 24 hour period
Description: The elution profile for 17β-estradiol, FIG. 6 from the stents produced in example 1.1, was assessed using an in-vitro test where five stents were vigorously stirred in a large volume (1000 ml) of PBS saline solution at 37° C. […] Aliquots of buffer were removed at various time points over a 24 hour period and analysed for 17β-estradiol content. When translated into in-vivo conditions, the release profile is predicted to be over a prolonged period of time.

[4] = Estradiol elution studies in flow-system at 37° C.; type: physicochemical; details: 100 ml/min, 500 ml PBS, 8 hour period
Description: The elution of estradiol was examined in a flow system at 37° C. and evaluated over an 8 hour period. PBS was maintained at 37° C. in six stirred reservoirs (500 ml each) within a water bath. A length of silicone tubing (3 mm internal diameter) was attached from each reservoir to one of six stent chambers (4 mm internal diameter 80 mm long) and back to the respective reservoir via a peristaltic pump. The system was pumped using a flow rate of 100 ml/min to reach equilibrium temperature of 37° C. The flow was stopped and two estradiol loaded 15 mm stents loaded as in Example 1 were placed in each of the six stent chambers, and flow recommenced. A stent was then removed at various time periods and wick dried. These were used to measure the amount of estradiol remaining on the stent. […]. Since the total volume of PBS passing over the stents in the flow model is […], it is likely that throughout the period the rate of desorption of drug from the stent was higher than the rate of absorption from the environment. This condition may not apply to the non-flow method.

[5] = test system: porcine arteries; assay: In vivo test on estradiol loaded stents; details: one month
[6] = Estradiol elution studies at 25° C., non-flow system; type: physicochemical; details: at 4 hours, 5 ml PBS on rollers, 15 mm DD stents from Example 1.1
Description: Elution studies were carried out at 25° C. for […] in gently agitated PBS. This was done by placing 15 mm DD stents loaded with estradiol, from Example 1.1 individually in vials containing 5 ml phosphate buffered saline (PBS) on rollers. At various time intervals up to 7 hours a 1 ml aliquot was removed and replaced with 1 ml fresh PBS. The stents and water aliquots were measured, to give the amount of drug eluted and the amount of drug remaining on the stents.

[7] = P is the octanol/water partition coefficient; cited from earlier work

Structure (SMILES): O [water]
I3/I1 ratio [1]: 0.633 | I3/I1 ratio, literature value [2]: 0.63

Structure (SMILES): C[C@]12CC[C@@H]3c4ccc(O)cc4CC[C@H]3[C@@H]1CC[C@@H]2O [estradiol, 17β-estradiol]
release from stent [3]: sustained release | elution compared with Example 2 [4]: eluted relatively more quickly | Re-endothelialization scores [5]: does not inhibit the healing process | estradiol still remaining on the stent [6]: 62%

Structure (SMILES): C[C@H]1C[C@@H]2[C@H]([C@@H](O)C[C@@]3(C)[C@H]2CC[C@]3(O)C(=O)CO)[C@@]2(C)C=CC(=O)C=C12 [MP, 6α-methylprednisolone]
log P [7]: 1.42

Next, values leading:

I3/I1 ratio [1]: 0.75
Structure (SMILES): C=CC(=O)OCc1ccccc1 [benzyl acrylate monomer, benzyl acrylate]

I3/I1 ratio [1]: 1.029
Structure (SMILES): C=C(C)C(=O)OCCCCCCCCCCCC [lauryl methacrylate]

Source: patent publication US8512733B2, “Stents with drug-containing amphiphilic polymer coating” (Abbott Laboratories, priority 2001, dated 2013)
